One assay addresses T1, Thymidine kinase (Human herpesvirus 1 (strain SC16) (HHV-1) (Human herpes simplex virus1), UniProt P06479).
T1 sequence (P06479 whole entry): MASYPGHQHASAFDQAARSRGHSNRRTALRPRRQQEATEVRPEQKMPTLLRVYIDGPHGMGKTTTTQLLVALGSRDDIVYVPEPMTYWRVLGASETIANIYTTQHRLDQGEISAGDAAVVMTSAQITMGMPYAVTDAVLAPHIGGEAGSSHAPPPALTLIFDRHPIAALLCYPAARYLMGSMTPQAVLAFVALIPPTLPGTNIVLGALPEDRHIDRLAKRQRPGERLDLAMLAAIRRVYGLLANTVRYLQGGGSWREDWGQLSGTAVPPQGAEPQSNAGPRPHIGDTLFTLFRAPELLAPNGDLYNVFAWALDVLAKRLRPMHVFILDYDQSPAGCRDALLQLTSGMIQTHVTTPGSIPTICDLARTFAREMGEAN
Description: Inhibitory activity against Herpes simplex virus type-I specific thymidine kinase. On the set-up: species or system Human alphaherpesvirus 1 strain SC16.

Assay [1] relates to Thymidine kinase (Human alphaherpesvirus 1). Description: Inhibitory activity against Herpes simplex virus type-I specific thymidine kinase; No inhibition detected at 1 mM concentration.

For orientation: EC50 means the concentration giving half of the maximal effect. Higher therefore signals lower potency in that assay.

`CCCCc1ccc(Nc2nc3c(ncn3[C@H]3O[C@@H](CO)[C@H](O)[C@@H]3O)c(=O)[nH]2)cc1` came in with an EC50 on Thymidine kinase of 75 µM.
As for `CCCCc1ccc(Nc2nc3c(ncn3COCCO)c(=O)[nH]2)cc1`, the EC50 at Thymidine kinase was 140 µM.
With `Cc1ccc(Nc2nc3nc[nH]c3c(=O)[nH]2)cc1`, the 50% effective concentration (EC50) on Thymidine kinase was 50 µM.
In the case of `CCc1cccc(Nc2nc3nc[nH]c3c(=O)[nH]2)c1`, the response on Thymidine kinase was half-maximal at 3 µM (EC50).
`CCCCc1ccc(Nc2nc(N)c3ncn([C@H]4C[C@H](O)[C@@H](CO)O4)c3n2)cc1`: the concentration giving a half-maximal response (EC50) entry in assay [1] was “Not Active”.
Consider `Cc1ccc(Nc2nc3c(ncn3C3O[C@@H](CO)[C@H](O)[C@@H]3O)c(=O)[nH]2)cc1` (stereo not given in full), for which the EC50 on Thymidine kinase was 30 µM.
On Thymidine kinase, `CCCCc1ccc(Nc2nc3c(ncn3[C@H]3C[C@H](O)[C@@H](CO)O3)c(=O)[nH]2)cc1` displayed a concentration for a half-maximal effect (EC50) of 25 µM.
In turn, `CCCCc1ccc(NC2=NC(=O)C3N=CN([C@H]4C[C@H](O)[C@@H](COP(=O)(O)O)O4)C3=N2)cc1` (stereo not given in full) gave an EC50 on Thymidine kinase of 400 µM.
In turn, `CCCCc1ccc(Nc2nc3nc[nH]c3c(=O)[nH]2)cc1` had an EC50 at Thymidine kinase of 50 µM.
For `O=C1N=C(Nc2ccccc2)N=C2C1N=CN2[C@H]1C[C@H](O)[C@@H](COP(=O)(O)O)O1` (stereo not given in full), the concentration for a half-maximal effect (EC50) at Thymidine kinase came to 3 µM.

Source of the values: ChEMBL document CHEMBL1124170, “N2-phenyldeoxyguanosine: a novel selective inhibitor of herpes simplex thymidine kinase” (J Med Chem, 1988).
